Experimental data taken from BigSolDB 2.1.

O=C(O)c1cccc(O)c1
solubility (mole fraction)
Settings | 278.15 K | 283.15 K | 288.15 K | 293.15 K | 298.15 K | 303.15 K | 308.15 K | 313.15 K | 318.15 K | 323.15 K
in acetone | 0.101 | 0.107 | 0.111 | 0.116 | 0.122 | 0.128 | 0.134 | 0.142 | 0.151 | 0.159
in acetonitrile | 0.00646 | 0.00759 | 0.0103 | 0.0116 | 0.0132 | 0.0155 | 0.017 | 0.0199 | 0.0228 | 0.0262
in ethanol | 0.0936 | 0.0968 | 0.101 | 0.106 | 0.112 | 0.116 | 0.121 | 0.127 | 0.134 | 0.147
in ethyl acetate | 0.0377 | 0.041 | 0.0441 | 0.0486 | 0.0534 | 0.0565 | 0.0607 | 0.0682 | 0.0742 | 0.0764
in ethylene glycol | 0.0804 | 0.0829 | 0.0847 | 0.0883 | 0.0959 | 0.102 | 0.109 | 0.116 | 0.124 | 0.136
in isopropanol | 0.0984 | 0.104 | 0.109 | 0.114 | 0.121 | 0.127 | 0.134 | 0.14 | 0.148 | 0.155
in isopropyl acetate | 0.0305 | 0.0337 | 0.0365 | 0.0383 | 0.043 | 0.0465 | 0.0507 | 0.0552 | 0.059 | 0.0618
in methanol | 0.0815 | 0.0856 | 0.0895 | 0.0943 | 0.0995 | 0.105 | 0.11 | 0.117 | 0.124 | 0.13
in methyl acetate | 0.0388 | 0.0435 | 0.048 | 0.0502 | 0.0549 | 0.0577 | 0.0631 | 0.0691 | 0.0764 | 0.0808
in n-butanol | 0.0772 | 0.0831 | 0.0857 | 0.0919 | 0.0957 | 0.102 | 0.109 | 0.115 | 0.12 | 0.125
in n-butyl acetate | 0.0361 | 0.0397 | 0.043 | 0.0459 | 0.0486 | 0.0526 | 0.0564 | 0.0611 | 0.0661 | 0.0693
in n-pentanol | 0.0774 | 0.0815 | 0.0852 | 0.0902 | 0.0951 | 0.101 | 0.106 | 0.113 | 0.118 | 0.125
in n-propanol | 0.0827 | 0.0878 | 0.0949 | 0.0975 | 0.101 | 0.108 | 0.114 | 0.121 | 0.128 | 0.133
in n-propyl acetate | 0.0379 | 0.0434 | 0.0449 | 0.047 | 0.0513 | 0.0569 | 0.061 | 0.0651 | 0.0711 | 0.0769
